Results taken from patent US12643912B2, “Macrocyclic compounds, a process for their preparation and pharmaceutical compositions containing them” (LES LABORATOIRES SERVIER, priority 2020, dated 2026).

These compounds were tested on Nrf2 (Keap1-NRF2 nuclear translocation) (assay: U2OS translocation assay (PathHunter U2OS Keap1-NRF2 Nuclear Translocation Cell Line)). Settings: Homo sapiens, U2OS, 3 h, read-out: CELLULAR U2OS EC50 (nM), U2OS Keap1-NRF2 nuclear translocation cells, 3 h incubation, luminescence, normalized between 1% DMSO and 10 μM andrographolide.
Format: cell-based
Procedure: EXAMPLE 84: U2OS—TRANSLOCATION ASSAY
U2OS cell have been stably transduced using MMLV-derived retroviral vector, to overexpress Nrf2-Enzyme Donor fusion protein, and Acceptor Enzyme in the nucleus (PathHunter® U2OS Keap1-NRF2 Nuclear Translocation Cell Line, Ref.93-0821C3, DiscoverX).
PathHunter U2OS cells were grown in Minimum Essential Medium (MEM) (Ref.30-2003, ATCC), 10% FBS (Ref.P30-193306, PanBiotech), 500 μg/ml Geneticine, 250 μg/ml hygromycine, 0.25 μg/ml puromycine (10131-027, 10687-010 and Ref.A1113802 respectively, Life Technologies).
The night before experiment, cells were harvested using Tryple Xpress (Ref.126905, Bibco) for 5 min at 37° C., resuspended in Opti-MEM™ (Ref.31985-047, Gibco), 1% FBS (Ref.P30-193306, PanBiotech) and then plated into 384 wells plates (Ref.6007680, Perkin Elmer) at the density of 7 500 cells/well in 20 μl. Cell are stored over night at 37° C., 5% CO2 until used. Compounds in 100% DMSO (0.315 μl/well) were resuspended in 20 μl MEM, 1% FBS, 3.4% DMSO. Compounds and andrographolide (10 μM final concentration; Ref.365645-500MG, Aldrich)) as positive control, were dispensed on cell, 5 μl /well, and then incubated for 3 h at 37° C. and 5% CO2. After incubation, Path hunter reagents were dispensed on cells (12 μl /well, Ref.93-0001, DiscoverX) and incubated for 60 min at room temperature in the dark.
Then, luminescence signal was measured using multimodal reader (Pherastar, BMG Labtech). Data were normalized between 1% DMSO (basal signal) and 10 μM andrographolide (positive signal) and analyzed using Activity Base software.
With `Cc1ccc2cc1CN1Cc3cc(ccc3OS1(=O)=O)Oc1ccccc1NCCCn1nnc3c(C)c(ccc31)C2CC(=O)O` (centres unmarked) [Example 71b, [4,37-Dimethyl-33,33-dioxo-27,32-dioxa-33λ^6-thia-1,14,15,16,20-pentaazaheptacyclo[26.5.3.1^3,70.1^9,130.0^12,160.0^21,260.0^31,35]octatriaconta-3(38),4,6,9(37),10,12,14,21,23,25,28,30,35-tridecaen-8-yl]acetic acid] the EC50 was 570 nM.
`COc1ccc2cc1[C@@H](C)N1Cc3cc(ccc3OS1(=O)=O)OCCOCCn1nnc3c(C)c(ccc31)[C@H]2CC(=O)O` [Example 41a] showed an EC50 of 716 nM.
`Cc1ccc2cc1CN1Cc3cc(ccc3OS1(=O)=O)OCCCCn1nnc3c(C)c(cc(Br)c31)[C@@H]2CC(=O)O` [Example 48, [(8R)-11-Bromo-4,31-dimethyl-27,27-dioxo-21,26-dioxa-27λ^6-thia-1,14,15,16-tetraazahexacyclo[20.5.3.1^3,70.1^9,130.0^12,160.0^25,29]dotriaconta-3(32),4,6,9(31),10,12,14,22,24,29-decaen-8-yl]acetic acid] showed an EC50 of 198 nM.
Compound `COc1ccc2cc1CN1Cc3cc(ccc3OS1(=O)=O)OCCN(C)CCCCn1nnc3c(C)c(ccc31)C2CC(=O)O` (centres unmarked) [Example 47] has an EC50 of 288 nM.
`COc1cc2cc(c1Cl)CN1Cc3cc(ccc3OS1(=O)=O)OCCCCn1nnc3c(C)c(ccc31)C2CC(=O)O` (centres unmarked) [Example 38a, [4-Chloro-5-methoxy-31-methyl-27,27-dioxo-21,26-dioxa-27λ^6-thia-1,14,15,16-tetraazahexacyclo[20.5.3.1^3,70.1^9,130.0^12,160.0^25,29]dotriaconta-3(32),4,6,9(31),10,12,14,22,24,29-decaen-8-yl]acetic acid] showed an EC50 of 2080 nM.
`Cc1ccc2cc1CN1Cc3cc(ccc3OS1(=O)=O)OCc1ccccc1CCn1nnc3c(C)c(ccc31)C2CC(=O)O` (centres unmarked) [Example 62b, [4,36-Dimethyl-32,32-dioxo-26,31-dioxa-32λ^6-thia-1,14,15,16-tetraazaheptacyclo[25.5.3.1^3,70.1^9,130.0^12,160.0^19,240.0^30,34]heptatriaconta-3(37),4,6,9(36),10,12,14,19,21,23,27,29,34-tridecaen-8-yl]acetic acid] showed an EC50 greater than 3160 nM.
`COc1ccc2cc1[C@H](C)N1Cc3cc(ccc3OS1(=O)=O)OCCCCCn1nnc3c(C)c(ccc31)[C@@H]2CC(=O)O` [Example 31c, [(2S,8R)-4-methoxy-2,32-dimethyl-28,28-dioxo-22,27-dioxa-28λ^6-thia-1,14,15,16-tetraazahexacyclo[21.5.3.1^3,70.1^9,130.0^12,160.0^26,30]tritriaconta-3(33),4,6,9(32),10,12,14,23,25,30-decaen-8-yl]acetic acid] gave an EC50 greater than 3160 nM.

Same assay, conditions: read-out: CELLULAR U2OS EC50; U2OS Keap1-NRF2 nuclear translocation cells, 3 h incubation, luminescence, normalized between 1% DMSO and 10 μM andrographolide
`Cc1ccc2cc1CN1Cc3cc(ccc3OS1(=O)=O)OCCCCn1nnc3c(C)c(ccc31)C2C(C)(C)C(=O)Nc1cncnc1` (single isomer, unassigned) [Example 81b, 2-[4,31-Dimethyl-27,27-dioxido-21,26-dioxa-27-thia-1,14,15,16-tetraazahexacyclo[20.5.3.1^3,70.1^9,130.0^12,160.0^25,29]dotriaconta-3(32),4,6,9(31),10,12,14,22,24,29-decaen-8-yl]-2-methyl-N-(pyrimidin-5-yl)propanamide] showed an EC50 greater than 3160 nM.
With `Cc1ccc2cc1CN1Cc3cc(ccc3OS1(=O)=O)OCc1ccccc1/C=C/n1nnc3c(C)c(ccc31)C2CC(=O)O` (single isomer, unassigned) [Example 61b, [(17E)-4,36-dimethyl-32,32-dioxo-26,31-dioxa-32λ^6-thia-1,14,15,16-tetraazaheptacyclo[25.5.3.1^3,70.1^9,130.0^12,160.0^19,240.0^30,34]heptatriaconta-3(37),4,6,9(36),10,12,14,17,19,21,23,27,29,34-tetradecaen-8-yl]acetic acid] the EC50 was greater than 3160 nM.
With `Cc1ccc2cc1CN1Cc3cc(ccc3OS1(=O)=O)OCc1ccccc1SCCCn1nnc3c(C)c(ccc31)C2CC(=O)O` (single isomer, unassigned) [Example 67a, [4,38-Dimethyl-34,34-dioxo-28,33-dioxa-20,34λ^6-dithia-1,14,15,16-tetraazaheptacyclo[27.5.3.1^3,70.1^9,130.0^12,160.0^21,260.0^32,36]nonatriaconta-3(39),4,6,9(38),10,12,14,21,23,25,29,31,36-tridecaen-8-yl]acetic acid] the EC50 was 554 nM.
`Cc1ccc2cc1CN1Cc3cc(ccc3OS1(=O)=O)OCCOCCn1nnc3c(C)c(ccc31)C2CC(=O)O` (single isomer, unassigned) [Example 78b, [4,32-Dimethyl-28,28-dioxo-19,22,27-trioxa-28λ^6-thia-1,14,15,16-tetraazahexacyclo[21.5.3.1^3,70.1^9,130.0^12,160.0^26,30]tritriaconta-3(33),4,6,9(32),10,12,14,23,25,30-decaen-8-yl]acetic acid] showed an EC50 of 873 nM.
In the case of `Cc1ccc2cc1CN1Cc3cc(ccc3OS1(=O)=O)OCc1ccccc1/C=C/n1nnc3c(C)c(ccc31)C2CC(=O)O` (single isomer, unassigned) [Example 61a, [(17E)-4,36-dimethyl-32,32-dioxo-26,31-dioxa-32λ^6-thia-1,14,15,16-tetraazaheptacyclo[25.5.3.1^3,70.1^9,130.0^12,160.0^19,240.0^30,34]heptatriaconta-3(37),4,6,9(36),10,12,14,17,19,21,23,27,29,34-tetradecaen-8-yl]acetic acid], the EC50 is reported as 717 nM.
Work on `Cc1ccc2cc1CN1Cc3cc(ccc3OS1(=O)=O)OCCCCn1nnc3c(C)c(ccc31)C2C(C)(C)C(=O)Nc1cccnc1` (single isomer, unassigned) [Example 82b, 2-[4,31-Dimethyl-27,27-dioxo-21,26-dioxa-27λ^6-thia-1,14,15,16-tetraazahexacyclo[20.5.3.1^3,70.1^9,130.0^12,160.0^25,29]dotriaconta-3(32),4,6,9(31),10,12,14,22,24,29-decaen-8-yl]-2-methyl-N-(pyridin-3-yl)propanamide] yielded an EC50 greater than 3160 nM.
Work on `Cc1ccc2cc1CN1Cc3cc(ccc3OS1(=O)=O)OCC1CCN(CC1)CCn1nnc3c(C)c(ccc31)C2CC(=O)O` (single isomer, unassigned) [Example 60b, [4,36-Dimethyl-30,30-dioxo-24,29-dioxa-30λ^6-thia-1,14,15,16,19-pentaazaheptacyclo[23.5.3.2^19,220.1^3,70.1^9,130.0^12,160.0^28,32]heptatriaconta-3(37),4,6,9(36),10,12,14,25,27,32-decaen-8-yl]acetic acid] yielded an EC50 greater than 3160 nM.
